From PubChem BioAssay AID434972 (The Scripps Research Institute Molecular Screening Center, 2010)
Active and inactive are the calls of the source.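 How the source made its calls: active means inhibition of WEE1 degradation of at least 19%, seen as raised luminescence; inactive means the rest.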

Molecular target: Wee1-like protein kinase (Homo sapiens) (UniProt P30291)
Assay: Wee1 degradation inhibition by kinase inhibitors, SAR follow-up, cell-based, HeLa, WEE1K328M-luciferase, luminescence, powder samples (AID 434972)
Conditions: HeLa WEE1K328M-luciferase stability, at 0.25 µM, stronger effect = higher value

Chain of Wee1-like protein kinase (Homo sapiens) (P30291 whole entry K328M): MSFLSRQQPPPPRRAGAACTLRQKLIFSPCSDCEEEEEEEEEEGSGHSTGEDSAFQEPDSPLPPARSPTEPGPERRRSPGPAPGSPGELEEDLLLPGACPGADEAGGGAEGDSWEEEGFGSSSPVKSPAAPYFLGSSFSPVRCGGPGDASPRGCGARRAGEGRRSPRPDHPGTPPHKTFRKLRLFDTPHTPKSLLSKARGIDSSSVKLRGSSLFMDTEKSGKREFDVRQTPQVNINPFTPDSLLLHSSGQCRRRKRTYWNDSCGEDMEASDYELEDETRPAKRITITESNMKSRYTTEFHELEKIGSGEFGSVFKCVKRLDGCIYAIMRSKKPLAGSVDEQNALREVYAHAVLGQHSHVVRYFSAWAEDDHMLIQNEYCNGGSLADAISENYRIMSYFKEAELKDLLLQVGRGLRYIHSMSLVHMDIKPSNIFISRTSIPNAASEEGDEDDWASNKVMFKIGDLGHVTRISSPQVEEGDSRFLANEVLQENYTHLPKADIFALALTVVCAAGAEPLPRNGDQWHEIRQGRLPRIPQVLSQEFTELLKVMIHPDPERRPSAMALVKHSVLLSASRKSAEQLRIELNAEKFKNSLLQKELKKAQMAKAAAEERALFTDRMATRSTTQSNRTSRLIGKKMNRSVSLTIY

| SMILES | inhibition of WEE1 degradation |
| --- | --- |
| Nc1cccc2[nH]c(CNc3nc(N4CCOCC4)nc4c3ncn4-c3ccsc3)nc12 | 15.6% (inactive) |
| CC(C)n1cnc2c(NCc3nc4ccccc4[nH]3)nc(Nc3cccnc3)nc21 | 3.4% (inactive) |
| COc1ccc2nc(CNc3nc(N4CCOCC4)nc4c3ncn4-c3ccsc3)[nH]c2c1 | 79.5% |
| Fc1ccc2nc(CNc3nc(N4CCOCC4)nc4c3ncn4-c3ccsc3)[nH]c2c1 | 81.4% |
| N#Cc1ccc2nc(CNc3nc(N4CCOCC4)nc4c3ncn4-c3ccsc3)[nH]c2c1 | 85.9% |
| CCOC(=O)c1cccc2[nH]c(CNc3nc(N4CCOCC4)nc4c3ncn4C(C)C)nc12 | 17% (inactive) |
| CC(C)n1cnc2c(NCc3nc4ccccc4[nH]3)nc(Nc3ccncn3)nc21 | 4% (inactive) |
| c1ccc(-n2cnc3c(NCc4nc5ccccc5[nH]4)nc(N4CCOCC4)nc32)cc1 | 4% (inactive) |
| CC(C)n1cnc2c(NCc3nc4ccccc4[nH]3)nc(N3CCOCC3)nc21 | 4.1% (inactive) |
| Clc1ccc2nc(CNc3nc(N4CCOCC4)nc4c3ncn4-c3ccsc3)[nH]c2c1 | 101% |
| O=[N+]([O-])c1cccc2[nH]c(CNc3nc(N4CCOCC4)nc4c3ncn4-c3ccsc3)nc12 | 100% |
| Cc1ccnc(NC(=O)CCCOc2cc(=O)n(C)c3ccccc23)c1 | 6.4% (inactive) |
| CC(C)n1cnc2c(NCc3nc4ccccc4[nH]3)nc(Nc3cnccn3)nc21 | 5.3% (inactive) |
| O=[N+]([O-])c1ccc2nc(CNc3nc(N4CCOCC4)nc4c3ncn4-c3ccsc3)[nH]c2c1 | 18.7% (inactive) |
| FC(F)(F)c1ccc2nc(CNc3nc(N4CCOCC4)nc4c3ncn4-c3ccsc3)[nH]c2c1 | 46.3% |
| FC(F)(F)c1cccc2[nH]c(CNc3nc(N4CCOCC4)nc4c3ncn4-c3ccsc3)nc12 | 10.8% (inactive) |
| FC(F)(F)c1cc(Br)c2nc(CNc3nc(N4CCOCC4)nc4c3ncn4-c3ccsc3)[nH]c2c1 | 13.4% (inactive) |
| CC(C)n1cnc2c(NCc3nc4c([N+](=O)[O-])cccc4[nH]3)nc(N3CCOCC3)nc21 | 111% |
| CCOC(=O)c1cccc2[nH]c(CNc3nc(N4CCOCC4)nc4c3ncn4-c3ccsc3)nc12 | 97.3% |

The remaining lines, values ahead:

| inhibition of WEE1 degradation | SMILES |
| --- | --- |
| 10.5% (inactive) | c1ccc2[nH]c(CNc3nc(N4CCCCC4)nc4c3ncn4-c3ccsc3)nc2c1 |
| 2.9% (inactive) | c1ccc2[nH]c(CNc3nc(Nc4cnccn4)nc4c3ncn4-c3ccsc3)nc2c1 |
| 11.4% (inactive) | c1ccc2[nH]c(CNc3nc(N4CCSCC4)nc4c3ncn4-c3ccsc3)nc2c1 |
| 8.6% (inactive) | NCCN1CCN(c2nc(NCc3nc4ccccc4[nH]3)c3ncn(-c4ccsc4)c3n2)CC1 |
| 8.2% (inactive) | C=CCN(CC=C)c1nc(NCc2nc3ccccc3[nH]2)c2ncn(-c3ccsc3)c2n1 |
| 8.3% (inactive) | Nc1ccc2nc(CNc3nc(N4CCOCC4)nc4c3ncn4-c3ccsc3)[nH]c2c1 |
| 22% | c1cnc2ccc3[nH]c(CNc4nc(N5CCOCC5)nc5c4ncn5-c4ccsc4)nc3c2c1 |
| 14.1% (inactive) | CN1CCN(c2nc(NCc3nc4ccccc4[nH]3)c3ncn(-c4ccsc4)c3n2)CC1 |
| 4% (inactive) | c1ccc(N2CCN(c3nc(NCc4nc5ccccc5[nH]4)c4ncn(-c5ccsc5)c4n3)CC2)nc1 |
| 10% (inactive) | OCCN1CCN(c2nc(NCc3nc4ccccc4[nH]3)c3ncn(-c4ccsc4)c3n2)CC1 |
| 9.9% (inactive) | c1ccc2[nH]c(CNc3nc(N4CCCC4)nc4c3ncn4-c3ccsc3)nc2c1 |
| 8.1% (inactive) | c1ccc2[nH]c(CNc3nc(NCCN4CCOCC4)nc4c3ncn4-c3ccsc3)nc2c1 |
| 56.8% | c1ccc2[nH]c(CNc3nc(N4CCOCC4)nc4c3ncn4-c3ccsc3)nc2c1 |
| 7.9% (inactive) | c1ccc2c(c1)CCN2c1nc(NCc2nc3ccccc3[nH]2)c2ncn(-c3ccsc3)c2n1 |
| 9.2% (inactive) | C[C@@H](Nc1nc(NCc2nc3ccccc3[nH]2)c2ncn(-c3ccsc3)c2n1)c1ccccc1 |
| 14.5% (inactive) | c1ccc2[nH]c(CNc3nc(N4CCNCC4)nc4c3ncn4-c3ccsc3)nc2c1 |
| 48.3% | c1ccc2cc3[nH]c(CNc4nc(N5CCOCC5)nc5c4ncn5-c4ccsc4)nc3cc2c1 |
| 3.6% (inactive) | O=C(NC1CC1)c1ccc(-c2nc(NCc3nc4ccccc4[nH]3)c3ncn(-c4ccsc4)c3n2)cc1 |
